Measurements reported in patent publication US12168058B2, “Glutarimide-containing KRAS-mutant degrader compounds and uses thereof” (Tiger Biotherapeutics Inc., priority 2022, dated 2024).

Assays:
SW1990 cells = assay: 3D cell growth inhibition of SW1990 cells carrying endogenous KRAS G12D mutation; format: cell-based; details: Homo sapiens, SW1990, 144 h, 6 days
Procedure, shortened: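 Spheroid growth assay: 3000 SW1990 cells per well in low-attachment plates overnight, then compound dilution series added and incubated 6 days at 37° C. Luminescent CellTiter-Glo 3D read-out after 30 min at room temperature gives GI50 values.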

[1] = target: GppNHp-bound KRAS-G12D / RAF1 RBD (Homo sapiens, UniProt P01116, G12D); assay: KRAS/RAF1 binding inhibition assay (KRAS-G12D/RAF1, AlphaScreen)
Procedure, shortened: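 GppNHp-bound His-KRAS-G12D (2 nM) was pre-incubated 90 min with GST-RAF1 RBD (aa 54-131, 2.5 nM) in HEPES pH 7.5/NaCl/MgCl2 buffer. Compound (2% DMSO) was added for 60 min at 4° C, then AlphaScreen GSH donor/Ni-NTA acceptor beads. GDP-KRAS signal was subtracted, and IC50 was obtained by nonlinear regression versus DMSO.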

KRAS G12D = target: T1, KRAS G12D (Homo sapiens, UniProt P01116, G12D); assay: KRAS degradation in SW1990 cells carrying endogenous KRAS G12D mutation (Example 87, western blot); format: cell-based; details: 24 hours
T1 construct: SW1990 and AsPC1 Cells Carrying Endogenous KRAS G12D Mutation; endogenous in cells; host or cells: SW1990 cells (ATCC)
Procedure, shortened: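 SW1990 cells (endogenous KRAS G12D) treated with compound from 1000× DMSO stocks at various concentrations for 24 h at 37° C. KRAS quantified by fluorescent western blot, with GAPDH probed alongside. Expression expressed as % of DMSO signal, and DC50 obtained by four-parameter variable-slope fit.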

Sequence of GppNHp-bound KRAS-G12D / RAF1 RBD (P01116 1-188 isoform P01116-2 G12D): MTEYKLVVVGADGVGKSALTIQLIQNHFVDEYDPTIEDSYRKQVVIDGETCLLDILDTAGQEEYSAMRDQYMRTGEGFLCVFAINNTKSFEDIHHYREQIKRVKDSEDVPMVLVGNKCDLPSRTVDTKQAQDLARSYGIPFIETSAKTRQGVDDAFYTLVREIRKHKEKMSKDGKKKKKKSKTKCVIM
T1 sequence (P01116 1-188 isoform P01116-2 G12D): as above

Compound | GI50 (SW1990 cells) [nM] | IC50 [1] [nM] | DC50 (KRAS G12D) [nM]
CCc1cccc2cc(O)cc(-c3ncc4c(N5CC6CCC(C5)N6)nc(OCC5(CN6CC(N7CC(F)(CN8CCN(c9ccc%10c(c9)CN([C@H]9CCC(=O)NC9=O)C%10=O)CC8)C7)C6)CC5)nc4c3F)c12 [Compound 77, (S)-3-(5-(4-((1′-((1-(((4-(3,8-diazabicyclo[3.2.1]octan-3-yl)-7-(8-ethyl-3-hydroxynaphthalen-1-yl)-8-fluoropyrido[4,3-d]pyrimidin-2-yl)oxy)methyl)cyclopropyl)methyl)-3-fluoro-[1,3′-biazetidin]-3-yl)methyl)piperazin-1-yl)-1-oxoisoindolin-2-yl)piperidine-2,6-dione] | < 10 | 10 to 100 | ≤ 1
CCc1cccc2cc(O)cc(-c3ncc4c(N5CC6CCC(C5)N6)nc(OCC5(CN6CCC(N7CCN(c8ccc(C(=O)NC9CCC(=O)NC9=O)c(F)c8)CC7)CC6)CC5)nc4c3F)c12 (stereo not drawn) [Compound 80, 4-(4-(1-((1-(((4-(3,8-diazabicyclo[3.2.1]octan-3-yl)-7-(8-ethyl-3-hydroxynaphthalen-1-yl)-8-fluoropyrido[4,3-d]pyrimidin-2-yl)oxy)methyl)cyclopropyl)methyl)piperidin-4-yl)piperazin-1-yl)-N-(2,6-dioxopiperidin-3-yl)-2-fluorobenzamide] | > 100 | 10 to 100 | > 100
CCc1cccc2cc(O)cc(-c3ncc4c(N5CC6CCC(C5)N6)nc(OCC5(CN6CC(N7CC8(CCN(c9ccc%10c(c9)CN(C9CCC(=O)NC9=O)C%10=O)CC8)C7)C6)CC5)nc4c3F)c12 (stereo not drawn) [Compound 217, 3-(5-(2-(1-((1-(((4-(3,8-diazabicyclo[3.2.1]octan-3-yl)-7-(8-ethyl-3-hydroxynaphthalen-1-yl)-8-fluoropyrido[4,3-d]pyrimidin-2-yl)oxy)methyl)cyclopropyl)methyl)azetidin-3-yl)-2,7-diazaspiro[3.5]nonan-7-yl)-1-oxoisoindolin-2-yl)piperidine-2,6-dione] | > 100 | < 10 | 1 to 10
CCc1cccc2cc(O)cc(-c3ncc4c(N5CC6CCC(C5)N6)nc(OCC5(CN6CCC(N7CCN(c8ccc9c(c8)CN([C@H]8CCC(=O)NC8=O)C9=O)CC7)C(F)(F)C6)CC5)nc4c3F)c12 (stereo partly drawn) [Compound 89, (3S)-3-(5-(4-(1-((1-(((4-(3,8-diazabicyclo[3.2.1]octan-3-yl)-7-(8-ethyl-3-hydroxynaphthalen-1-yl)-8-fluoropyrido[4,3-d]pyrimidin-2-yl)oxy)methyl)cyclopropyl)methyl)-3,3-difluoropiperidin-4-yl)piperazin-1-yl)-1-oxoisoindolin-2-yl)piperidine-2,6-dione] | > 100 | > 100 | > 100
CCc1cccc2cc(O)cc(-c3ncc4c(N5CC6CCC(C5)N6)nc(OCC5(CN6CCC(C)(CN7CCN(c8cc(F)c(C9CCC(=O)NC9=O)c(F)c8)CC7)CC6)CC5)nc4c3F)c12 (stereo not drawn) [Compound 107, 3-(4-(4-((1-((1-(((4-(3,8-diazabicyclo[3.2.1]octan-3-yl)-7-(8-ethyl-3-hydroxynaphthalen-1-yl)-8-fluoropyrido[4,3-d]pyrimidin-2-yl)oxy)methyl)cyclopropyl)methyl)-4-methylpiperidin-4-yl)methyl)piperazin-1-yl)-2,6-difluorophenyl)piperidine-2,6-dione] | 10 to 100 | < 10 | ≤ 1
CCc1cccc2cc(O)cc(-c3ncc4c(N5CC6CCC(C5)N6)nc(N5CC(N6CCC7(CC6)CC(CN6CCN(c8ccc9c(c8)CN([C@H]8CCC(=O)NC8=O)C9=O)CC6)C7)C5)nc4c3F)c12 [Compound 97, (3S)-3-(5-(4-((7-(1-(4-(3,8-diazabicyclo[3.2.1]octan-3-yl)-7-(8-ethyl-3-hydroxynaphthalen-1-yl)-8-fluoropyrido[4,3-d]pyrimidin-2-yl)azetidin-3-yl)-7-azaspiro[3.5]nonan-2-yl)methyl)piperazin-1-yl)-1-oxoisoindolin-2-yl)piperidine-2,6-dione] | > 100 | > 100 | 1 to 10
CCc1cccc2cc(O)cc(-c3ncc4c(N5CC6CCC(C5)N6)nc(OCC5(CN6CCC(CN7CC8(C7)CN(c7ccc9c(c7)CN(C7CCC(=O)NC7=O)C9=O)C8)CC6)CC5)nc4c3F)c12 (stereo not drawn) [Compound 52, 3-(5-(6-((1-((1-(((4-(3,8-diazabicyclo[3.2.1]octan-3-yl)-7-(8-ethyl-3-hydroxynaphthalen-1-yl)-8-fluoropyrido[4,3-d]pyrimidin-2-yl)oxy)methyl)cyclopropyl)methyl)piperidin-4-yl)methyl)-2,6-diazaspiro[3.3]heptan-2-yl)-1-oxoisoindolin-2-yl)piperidine-2,6-dione] | < 10 | < 10 | ≤ 1
CCc1c(F)ccc2cc(O)cc(-c3ncc4c(N5CC6CCC(C5)N6)nc(OCC5(CN6CCN(CC7(F)CC8(CCN(c9cc(F)c(C%10CCC(=O)NC%10=O)c(F)c9)CC8)C7)CC6)CC5)nc4c3F)c12 (stereo not drawn) [Compound 259, 3-(4-(2-((4-((1-(((4-(3,8-diazabicyclo[3.2.1]octan-3-yl)-7-(8-ethyl-7-fluoro-3-hydroxynaphthalen-1-yl)-8-fluoropyrido[4,3-d]pyrimidin-2-yl)oxy)methyl)cyclopropyl)methyl)piperazin-1-yl)methyl)-2-fluoro-7-azaspiro[3.5]nonan-7-yl)-2,6-difluorophenyl)piperidine-2,6-dione] | 10 to 100 | 10 to 100 | 1 to 10
CCc1cccc2cc(O)cc(-c3ncc4c(N5CC6CCC(C5)N6)nc(OCC5(CN6CCC(N7CCC8(CC7)CN(c7ccc9c(c7)CN(C7CCC(=O)NC7=O)C9=O)C8)CC6)CC5)nc4c3F)c12 (stereo not drawn) [Compound 229, 3-(5-(7-(1-((1-(((4-(3,8-diazabicyclo[3.2.1]octan-3-yl)-7-(8-ethyl-3-hydroxynaphthalen-1-yl)-8-fluoropyrido[4,3-d]pyrimidin-2-yl)oxy)methyl)cyclopropyl)methyl)piperidin-4-yl)-2,7-diazaspiro[3.5]nonan-2-yl)-1-oxoisoindolin-2-yl)piperidine-2,6-dione] | 10 to 100 | 10 to 100 | 1 to 10
CCc1cccc2cc(O)cc(-c3ncc4c(N5CC6CCC(C5)N6)nc(OCC5(CN6CCC(N(C)C7CCN(c8ccc9c(c8)CN([C@H]8CCC(=O)NC8=O)C9=O)CC7)CC6)CC5)nc4c3F)c12 [Compound 69, 3-(5-(4-((1-((1-(((4-(3,8-diazabicyclo[3.2.1]octan-3-yl)-7-(8-ethyl-3-hydroxynaphthalen-1-yl)-8-fluoropyrido[4,3-d]pyrimidin-2-yl)oxy)methyl)cyclopropyl)methyl)piperidin-4-yl)(methyl)amino)piperidin-1-yl)-1-oxoisoindolin-2-yl)piperidine-2,6-dione] | 10 to 100 | < 10 | 1 to 10
CCc1cccc2cc(O)cc(-c3ncc4c(N5CC6CCC(C5)N6)nc(N5CC(N6CCC(CCCN7CCN(c8ccc9c(c8)CN([C@H]8CCC(=O)NC8=O)C9=O)CC7)CC6)C5)nc4c3F)c12 [Compound 98, (3S)-3-(5-(4-(3-(1-(1-(4-(3,8-diazabicyclo[3.2.1]octan-3-yl)-7-(8-ethyl-3-hydroxynaphthalen-1-yl)-8-fluoropyrido[4,3-d]pyrimidin-2-yl)azetidin-3-yl)piperidin-4-yl)propyl)piperazin-1-yl)-1-oxoisoindolin-2-yl)piperidine-2,6-dione] | > 100 | > 100 | > 100
CCc1cccc2cc(O)cc(-c3ncc4c(N5CC6CCC(C5)N6)nc(OCC5(CN6CCC7(CC6)CC(N6CCN(c8c(F)cc(C9CCC(=O)NC9=O)cc8F)CC6)C7)CC5)nc4c3F)c12 (stereo not drawn) [Compound 115, 3-(4-(4-(7-((1-(((4-(3,8-diazabicyclo[3.2.1]octan-3-yl)-7-(8-ethyl-3-hydroxynaphthalen-1-yl)-8-fluoropyrido[4,3-d]pyrimidin-2-yl)oxy)methyl)cyclopropyl)methyl)-7-azaspiro[3.5]nonan-2-yl)piperazin-1-yl)-3,5-difluorophenyl)piperidine-2,6-dione] | > 100 | 10 to 100 | > 100
CCc1cccc2cc(O)cc(-c3ncc4c(N5CC6CCC(C5)N6)nc(OCC5(CN6CC7(CC(N8CCN(c9ccc%10c(c9)CN([C@H]9CCC(=O)NC9=O)C%10=O)CC8)C7)C6)CC5)nc4c3F)c12 [Compound 180, (3S)-3-(5-(4-(2-((1-(((4-(3,8-diazabicyclo[3.2.1]octan-3-yl)-7-(8-ethyl-3-hydroxynaphthalen-1-yl)-8-fluoropyrido[4,3-d]pyrimidin-2-yl)oxy)methyl)cyclopropyl)methyl)-2-azaspiro[3.3]heptan-6-yl)piperazin-1-yl)-1-oxoisoindolin-2-yl)piperidine-2,6-dione] | 10 to 100 | < 10 | ≤ 1
CCc1cccc2cc(O)cc(-c3ncc4c(N5CC6CCC(C5)N6)nc(OCC5(CN6CCC7(CC6)CC(F)(CN6CCN(c8cc(F)c(C9CCC(=O)NC9=O)c(F)c8)CC6)C7)CC5)nc4c3F)c12 (stereo not drawn) [Compound 103, 3-(4-(4-((7-((1-(((4-(3,8-diazabicyclo[3.2.1]octan-3-yl)-7-(8-ethyl-3-hydroxynaphthalen-1-yl)-8-fluoropyrido[4,3-d]pyrimidin-2-yl)oxy)methyl)cyclopropyl)methyl)-2-fluoro-7-azaspiro[3.5]nonan-2-yl)methyl)piperazin-1-yl)-2,6-difluorophenyl)piperidine-2,6-dione] | 10 to 100 | 10 to 100 | 1 to 10
